Assay results reported in patent US20040171061A1 (priority 2000, published 2004).

Key:
[1] = biological target: autophagocytosis (luciferase uptake into isolated yeast vacuoles); experiment: In vitro autophagocytosis assay (luciferase uptake into isolated vacuoles); format: biochemical, Saccharomyces cerevisiae; details: standard uptake reaction, cell-free, sample without inhibitor as 100% reference, FIG. 7; read-out: IC50 for prevention of vesicle formation (luciferase uptake)
Description: This mixture was incubated for 1 h at 27° C. A 70 μl sample was chilled on ice, diluted with 300 μl 150 mM KCl in PS buffer, centrifuged (6800×g, 4 min, 2° C., fixed angle table top centrifuge), washed twice with 300 μl 150 mM KCl in PS buffer, and resuspended in 60 μl 150 mM KCl in PS buffer. 10 μl were used to check for complete vacuole recovery by determining the protein concentration or, alternatively, the activity of endogenous Pho8p (according to Haas et al., 1994). 40 μl of the suspension were treated with proteinase K (15 min, 0° C., 275 μg/ml, added from a 5 mg/ml stock in PS) to digest surface-bound luciferase. Digestion was terminated by adding an equal volume of freshly prepared PMSF solution (0.5 mM PMSF, 150 mM KCl, in PS buffer). Luciferase activity was determined from a 25 μl aliquot in a luminometer using a luciferase kit (Berthold Detection Systems, Pforzheim) according to the instructions of the supplier.

[2] = biological target: firefly luciferase (Photinus pyralis, UniProt P08659); experiment: Direct influence on luciferase activity (control); format: biochemical; details: not shown
[3] = system: autophagocytosis in yeast; details: nocodazole treatment disassembling microtubules (Kirisako et al. 1999); cited from earlier work

Sequence of firefly luciferase (P08659 whole entry): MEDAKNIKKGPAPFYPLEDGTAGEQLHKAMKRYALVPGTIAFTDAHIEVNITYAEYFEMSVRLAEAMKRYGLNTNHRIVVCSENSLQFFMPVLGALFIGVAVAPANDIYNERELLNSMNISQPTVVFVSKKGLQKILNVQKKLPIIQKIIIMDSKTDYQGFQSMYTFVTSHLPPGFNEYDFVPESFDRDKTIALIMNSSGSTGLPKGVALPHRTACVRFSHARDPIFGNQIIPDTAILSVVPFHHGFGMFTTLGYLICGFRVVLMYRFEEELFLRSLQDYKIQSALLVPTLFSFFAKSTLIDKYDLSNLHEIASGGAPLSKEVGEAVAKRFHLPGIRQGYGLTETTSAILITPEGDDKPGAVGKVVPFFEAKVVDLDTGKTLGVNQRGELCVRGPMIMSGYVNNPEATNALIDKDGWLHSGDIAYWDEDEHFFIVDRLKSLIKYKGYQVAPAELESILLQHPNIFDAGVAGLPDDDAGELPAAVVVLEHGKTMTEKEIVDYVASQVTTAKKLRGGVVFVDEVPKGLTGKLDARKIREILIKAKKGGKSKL

| SMILES | IC50 [1] | influence on luciferase activity by itself [2] | block of autophagocytosis in yeast [3] |
| --- | --- | --- | --- |
| Nc1nc2c(ncn2[C@@H]2O[C@H](COP(=O)(O)OP(=O)(O)OP(O)(O)=S)[C@@H](O)[C@H]2O)c(=O)[nH]1 [GTPγS] | 100 µM | did not influence luciferase activity by itself |  |
| COC(=O)Nc1nc2ccc(C(=O)c3cccs3)cc2[nH]1 [nocodazole] |  |  | does not block autophagocytosis |
